From paper PMC3891892 (Nature, 2013) come the findings set out here.

In test [1] the test system is recombinant virus possessing Hangzhou/1 HA. The test is classed as binding, influenza A virus (H7N9).
Another test has as its system CA04. The arrangement: species or system mice. Particulars: mouse, in vivo, po.
In test [2] the test system is CA04 (A/California/04/2009; H1N1). Briefly: microbe, parasite or virus in culture. The test is classed as cell-based. The settings on record: Influenza A virus, H1N1, MDCK, read-out: IC50, plaque reduction assay. A general note: Plaques are areas of infected cells; plaque reduction assays count them against a control.

Values after ≈ are worked out from the molar mass of the structure shown.

The term IC50 denotes the concentration that inhibits the measured activity by half.

`CC(=O)N[C@H]1[C@H]([C@H](O)[C@H](O)CO)OC(C(=O)O)=C[C@@H]1N=C(N)N` [Zanamivir, zanamivir]: the “effect of inhibition of NA enzymatic function on glycan binding” value in test [1] is on record as “substantial increases in binding to α2–3 linked sialosides”. In the case of `NC(=O)c1nc(F)c[nH]c1=O` [favipiravir], the therapeutic effectiveness result with CA04 was “clear therapeutic effectiveness”. In addition, the concentration for half-maximal inhibition (IC50) in test [2] was 1.2 µg/mL (≈ 7.64 µM).
